We go through three molecules from ChEMBL document CHEMBL3421579, “Absolute configuration of labdane diterpenoids from Physalis nicandroides” (J Nat Prod, 2015).

For assay [1], the system named is Mus musculus. As to the kind of experiment: Anti-inflammatory activity in CD1 mouse model of TPA-induced ear edema assessed as inhibition of ear edema at 0.1 to 1 umol/ear applied to right ear 10 mins after TPA-stimulation and measured 4 hrs post compound dose relative to indomethacin. Format: functional.
For assay [2], the system named is Mus musculus. The assay can be described thus: Anti-inflammatory activity in CD1 mouse model of TPA-induced ear edema assessed as inhibition of ear edema at 0.1 to 1 umol/ear applied to right ear 10 mins after TPA-stimulation and measured 4 hrs post compound dose. Format: functional, organism-based.
Assay [3] concerns Mus musculus. The assay can be described thus: Anti-inflammatory activity in CD1 mouse model of TPA-induced ear edema assessed as inhibition of ear edema at 1 umol/ear applied to right ear 10 mins after TPA-stimulation and measured 4 hrs post compound dose. It counts as functional.

Take `C/C(=C\CO)CC[C@@H]1[C@@]2(C)CCCC(C)(C)[C@@H]2CC[C@@]1(C)O`: in assay [1], the “Ratio IC50” value amounted to 2. The IC50 in assay [2] worked out at 0.67 µmol. For the same molecule, the “inhibition (INH)” value in assay [3] turned out to be 64.32%. With `C=C1CC[C@H]2C(C)(C)CCC[C@]2(C)[C@H]1CC/C(=C/CO)CO`, the “inhibition (INH)” value in assay [3] turned out to be 41.35%.

For `COc1ccc2c(c1)c(CC(=O)O)c(C)n2C(=O)c1ccc(Cl)cc1` [INDOMETHACIN], in assay [2], the IC50 came out at 0.297 µmol.
